The experiment addresses T1, Estrogen receptor (Homo sapiens, UniProt P03372).
T1 sequence (P03372 whole entry): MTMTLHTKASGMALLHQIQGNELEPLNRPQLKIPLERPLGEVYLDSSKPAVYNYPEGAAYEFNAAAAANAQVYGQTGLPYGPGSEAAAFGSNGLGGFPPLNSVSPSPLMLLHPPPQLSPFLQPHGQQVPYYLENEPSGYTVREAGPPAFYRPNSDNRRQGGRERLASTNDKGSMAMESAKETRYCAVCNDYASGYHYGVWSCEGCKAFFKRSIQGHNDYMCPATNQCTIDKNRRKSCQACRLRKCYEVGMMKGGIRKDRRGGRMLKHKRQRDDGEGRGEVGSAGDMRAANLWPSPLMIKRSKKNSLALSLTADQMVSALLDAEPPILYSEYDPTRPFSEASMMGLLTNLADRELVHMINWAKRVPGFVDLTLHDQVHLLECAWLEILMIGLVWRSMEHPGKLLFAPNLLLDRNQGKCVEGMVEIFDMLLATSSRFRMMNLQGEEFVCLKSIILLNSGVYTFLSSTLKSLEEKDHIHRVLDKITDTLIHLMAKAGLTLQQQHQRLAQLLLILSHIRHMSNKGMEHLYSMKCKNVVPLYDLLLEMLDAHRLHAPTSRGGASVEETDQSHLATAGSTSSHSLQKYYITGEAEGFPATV
In words: Displacement of [3H]estradiol from estrogen receptor.

The term IC50 denotes the midpoint of a concentration-inhibition curve. Low values mean greater potency in that assay, high ones weaker potency in that assay. Turning to `COc1cc(O)c2c(C=O)c(-c3ccc(O)cc3O)oc2c1` [EBENFURAN II], the IC50 stood at 0.043 µM.

In the case of `COc1cc2oc(-c3ccc(O)cc3O)cc2cc1O` [EBENFURAN I], the 50% inhibitory concentration (IC50) was found to be 0.046 µM.
